Data as given in patent publication US9493466B2, “Treatment of cancer with TOR kinase inhibitors” (Signal Pharmaceuticals, LLC, priority 2011, dated 2016).

Columns and labels:
HCC1937 = test: Growth inhibition assay for breast cancer; type: cell-based; details: HCC1937 (Basal, TN), 96 hours
Excerpt: (§1) Growth Inhibition Assay for Breast Cancer (BC) (Compound 1). All breast cancer cell lines were maintained and tested in appropriate culture media. The seeding density for each cell line was optimized to ensure assay linearity in 384-well plates.
(§2) Increasing concentrations of Compound 1 were spotted via an acoustic dispenser (EDC ATS-100) into an empty 384-well plate. Compound 1 was spotted in a 10-point serial dilution fashion (3-fold dilution) in duplicate within the plate. The dimethyl sulfoxide (DMSO) concentration was kept constant for a final assay concentration of 0.1% DMSO. Plates were replicated for use against different cell lines and testing periods. After compound plate replication, all plates were sealed (Agilent ThermoLoc) and stored at −20° C. for up to 1 month. When ready for testing, plates were removed from the freezer, thawed, and unsealed just prior to the addition of the test cell.
(§3) Prior to testing, cells were grown and expanded in culture flasks to provide sufficient amounts of starting material. Cells were then diluted to their desired densities and added directly to the Compound 1-spotted 384-well plates. Cells were allowed to grow for 96 hours at 37° C./5% CO2. At the time of setup (t0), initial cell number was assessed via a viability assay (Cell Titer-Glo) and read for luminescence. After 96 hours, cell viability of Compound 1-treated cells was assessed via Cell Titer-Glo and read for luminescence.
(§4) Cell lines were assayed for growth inhibition by Compound 1 for at least two independent tests. All data was normalized and represented as a percentage of the DMSO-treated control cells. […] The potency of Compound 1 in different subtypes of breast cancer cell lines is shown in FIG. 7A, while the correlation of Compound 1 sensitivity to ER, HER, PIK3CA, and TP53 status is shown in FIG. 7B.

BT-20 = test: Growth inhibition assay for breast cancer; type: cell-based; details: BT-20 (Basal, TN), 96 hours
Excerpt: as §1, §2, §3, §4

BT-549 = test: Growth inhibition assay for breast cancer; type: cell-based; details: BT-549 (Basal, TN), 96 hours
Excerpt: as §1, §2, §3, §4

CAL-85-1 = test: Growth inhibition assay for breast cancer; type: cell-based; details: CAL-85-1 (Basal, TN), 96 hours
Excerpt: as §1, §2, §3, §4

MDA-MB-453 = test: Growth inhibition assay for breast cancer; type: cell-based; details: MDA-MB-453 (Luminal, Her2+), 96 hours
Excerpt: as §1, §2, §3, §4

MCF12A = test: Growth inhibition assay for breast cancer; type: cell-based; details: MCF12A (Basal, TN), 96 hours
Excerpt: as §1, §2, §3, §4

CAL-51 = test: Growth inhibition assay for breast cancer; type: cell-based; details: CAL-51 (Basal, TN), 96 hours
Excerpt: as §1, §2, §3, §4

EFM-192A = test: Growth inhibition assay for breast cancer; type: cell-based; details: EFM-192A (Luminal, Her2+), 96 hours
Excerpt: as §1, §2, §3, §4

CAMA-1 = test: Growth inhibition assay for breast cancer; type: cell-based; details: CAMA-1 (Luminal, ER+), 96 hours
Excerpt: as §1, §2, §3, §4

CAL-120 = test: Growth inhibition assay for breast cancer; type: cell-based; details: CAL-120 (Basal, TN), 96 hours
Excerpt: as §1, §2, §3, §4

HCT-116 tumors = test: HCT-116 human colorectal cancer xenograft model; type: in vivo, SCID mice
Method: HCT-116 Human Colorectal Cancer Xenograft Model. The HCT-116 cell line was obtained from American Tissue Culture Collection (ATCC) (Gaithersberg, Md.) and grown in growth medium containing McCoy's 5A medium with 2 mM L-glutamine adjusted to contain 90% and 10% of fetal bovine serum. The cells were detached from tissue culture flasks using trypsin-EDTA. After centrifugation, the cell pellets were suspended in phosphate buffered saline (PBS) and counted using a hemocytometer. Matrigel was added to the cell suspension to adjust the final volume to 2×10^6 cells/0.1 mL of 1:1 mixture of Matrigel: PBS.
Female 6-8 weeks old CB17 SCID mice were obtained from Charles River Laboratories at a body weight of 17-20 g. Mice were anesthetized with inhaled isoflurane and then inoculated with HCT-116 tumor cells subcutaneously on the right hind leg with 0.1 mL of a single cell suspension using a sterile 1 mL syringe fitted with a 26 gauge needle. Following inoculation, the mice were returned to microisolator cages. The tumors were allowed to grow to about 100 mm^3 prior to randomization. The typical number of days required for tumors to reach 100 mm^3 was 7 to 8 days. The tumor of each animal was measured and animals with tumors ranging between 100 and 150 mm^3 were included in the study. The animals were distributed randomly into various cages and the cages were randomly assigned to vehicle, positive control, or test article groups. All of the mice were tagged with metal ear tags on the right ear. A typical group consisted of 8 to 10 animals.
Compound 1 was formulated in 0.5% CMC and 0.25% Tween 80 in water (as a suspension). The formulations were homogenized using a Teflon pestle and mortar (Potter-Elvehjem tissue grinder). Between the doses, the formulated compound was stored under constant stirring using a magnetic stirrer at 4° C. in the dark. The test article and vehicle were administered by oral gavage. The positive control (rapamycin) was prepared as solution in 2% ethanol, 45% polyethyleneglycol 400, and 53% saline and administered by IP injection. Vehicle and the test article were dosed in a volume of 5 mL/kg. The positive control rapamycin was dosed in a volume of 10 mL/kg. Sterile syringes and gavage needles were used for compound administration. All the procedures including injections were done in biosafety cabinets sprayed with ethanol prior to use.
Groups of female SCID mice bearing HCT-116 tumors (n=9-10/group) were dosed orally with vehicle or Compound 1 (1 mg/kg to 50 mg/kg) twice daily (BID), once daily (QD), every second day (Q2D), every third day (Q3D) or every 5th day (Q5D) throughout the study starting when the tumor volumes reached approximately 100 mm^3. The BID dose groups were dosed with a 10 h separation between the morning and evening doses. In the positive control group, rapamycin (n=6/group) was administered via the intraperitoneal (IP) route Q3D. At the end of each study, plasma and/or tumor samples were collected.
Tumor volumes were determined prior to the initiation of treatment and were considered as the starting volumes. Thereafter, tumors were measured twice a week for the duration of the study. The long and short axes of each tumor were measured using a digital caliper in millimeters. The tumor volumes were calculated using the formula: width^2×length/2 (using long [L] and short [W] axes of tumors). The tumor volumes were expressed in cubic millimeters (mm^3). Tumor volume data are expressed as mean±SE. The difference in tumor volume between vehicle and treatment group was expressed in percent volume reduction=100−tumor volume of treated/tumor volume of control×100. Statistical analysis was done using Graphpad Prism. Comparison between multiple groups was done using one-way ANOVA with Newman-Keuls post-test with a 95% significance level.
Initial body weights were recorded prior to the initiation of treatment using a digital scale. […]

With CO[C@H]1CC[C@H](N2C(=O)CNc3ncc(-c4ccc(C(C)(C)O)nc4)nc32)CC1 [Compound 1, 7-(6-(2-hydroxypropan-2-yl)pyridin-3-yl)-1-((1r,4r)-4-methoxycyclohexyl)-3,4-dihydropyrazino-[2,3-b]pyrazin-2(1H)-one] the GI50 (HCC1937) was 697 nM, the GI50 (BT-20) was 330 nM and the GI50 (BT-549) was 149 nM. It also gave a GI50 (CAL-85-1) of 253 nM, a GI50 (MDA-MB-453) of 143 nM and a GI50 (MCF12A) of 44.4 nM. The GI50 (CAL-51) was 119 nM, the GI50 (EFM-192A) was 192 nM and the GI50 (CAMA-1) was 146 nM. The GI50 (CAL-120) was 700 nM, the tumor growth inhibition (HCT-116 tumors; 5 mg/kg (BID), 10 mg/kg (BID), 25 mg/kg (QD and Q2D), Day 25) was “Significant (p<0.001) tumor growth inhibition” and the Body weight loss (HCT-116 tumors; 10 mg/kg BID) was 16.9%. For the same compound, the tumor volume reduction (HCT-116 tumors; 10 mg/kg BID) was “Approximately 50%”, the Body weight loss (HCT-116 tumors; 25 mg/kg QD) was 14% and the “minimum dose required to obtain >65% tumor volume reduction compared to vehicle” value (HCT-116 tumors; QD oral) was 25 mg/kg. For the same compound, the “change in body weight” value (HCT-116 tumors; any other group) was “No significant change”.
